Assay results reported in patent US20230072421A1, “TARGETED RADIOPHARMACEUTICALS FOR THE DIAGNOSIS AND TREATMENT OF PROSTATE CANCER” (Bayer AS, priority 2019, published 2023).

Target: T1, PSMA-expressing LNCaP cells (Homo sapiens, UniProt Q04609)
T1 construct: PSMA-expressing LNCaP cells; endogenous in cells; host or cells: LNCaP
Experiment: Binding competition assay against 3H-PSMA-617 on LNCaP cells
Details: LNCaP cells
Description: Cells were incubated at 37° C. and 5% CO2 over night. […] After addition of the compounds in growth media the cells were swiveled slightly on a shaker mixing for 10 min followed by incubation for 2 h at 37° C., 5% C02. Following the incubation time the supernatant was removed by pipetting and cells were washed twice with ice cold PBS (total of 800 μl). Cells were lysed in 500 μl of 0.3M NaOH (PanReac AppliChem ITW Reagents) by vigorous shaking for 15 min and the cell lysated pipetted into scintillator tubes (S207-[…]® Scintillation Vials 6.5 ml #S207, Simport). In the following the wells were washed with 500 μl PBS and the washing PBS added to the corresponding samples in the sincitallator tubes. To each sample in the scintillator tubes 4 mL of Ultima Gold liquid scintillation cocktail (Sigma-Aldrich #L8286) was added and the samples let stand for at least 30 min. Thereafter radioactivity was counted in a Tri-Carb Liquid Scinzillation Analyzer (Perkin Elmer).

[1] = 10 nM 3H-PSMA-617, competing non-radiolabeled compound 10 nM, 2 h at 37° C., triplicates
[2] = 10 nM 3H-PSMA-617, competing non-radiolabeled compound 100 nM, 2 h at 37° C., triplicates

T1 sequence (Q04609 whole entry): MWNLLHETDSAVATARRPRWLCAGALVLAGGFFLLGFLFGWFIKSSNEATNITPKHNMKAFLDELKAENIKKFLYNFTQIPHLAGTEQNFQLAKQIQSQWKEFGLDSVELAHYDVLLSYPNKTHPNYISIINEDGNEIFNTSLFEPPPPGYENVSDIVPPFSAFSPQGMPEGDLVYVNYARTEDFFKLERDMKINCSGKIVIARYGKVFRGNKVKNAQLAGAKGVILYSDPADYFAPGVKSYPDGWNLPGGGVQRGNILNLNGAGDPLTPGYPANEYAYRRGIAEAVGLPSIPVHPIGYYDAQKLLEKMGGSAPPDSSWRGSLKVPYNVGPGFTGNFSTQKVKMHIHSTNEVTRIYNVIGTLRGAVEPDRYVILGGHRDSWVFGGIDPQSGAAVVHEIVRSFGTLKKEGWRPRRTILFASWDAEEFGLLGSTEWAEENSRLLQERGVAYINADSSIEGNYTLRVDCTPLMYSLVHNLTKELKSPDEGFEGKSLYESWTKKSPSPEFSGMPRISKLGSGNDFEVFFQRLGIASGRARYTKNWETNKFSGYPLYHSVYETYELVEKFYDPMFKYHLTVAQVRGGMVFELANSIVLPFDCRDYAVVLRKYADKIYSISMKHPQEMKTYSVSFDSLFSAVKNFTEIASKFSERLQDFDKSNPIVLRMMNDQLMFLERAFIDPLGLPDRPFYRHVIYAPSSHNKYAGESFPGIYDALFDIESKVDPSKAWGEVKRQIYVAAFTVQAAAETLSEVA

SMILES	remaining activity at 0.01 µM [1]	remaining activity at 0.1 µM [2]	% remaining 3H-PSMA-617 @ 10 nM (mean) [1]	% remaining 3H-PSMA-617 @ 100 nM (mean) [2]	Non-specific binding: remaining binding of 3H-PSMA-617 in the presence of unlabeled PSMA-617 (unlabeled PSMA-617 at 5000 nM (500 fold excess))
NC[C@H]1CC[C@H](C(=O)N[C@@H](Cc2ccc(O)cc2)C(=O)NCCCC[C@H](NC(=O)N[C@@H](CCC(=O)O)C(=O)O)C(=O)O)CC1 [Example 15-A, N^6—{N-[(1r,4S)-4-(aminomethyl)cyclohexane-1-carbonyl]-L-tyrosyl}-N^2-{[(1S)-1,3-dicarboxypropyl]carbamoyl}-L-lysine]	133%	111%			
NC[C@H]1CC[C@H](C(=O)NC(Cc2ccc3ccccc3c2)C(=O)NCCCC[C@H](NC(=O)N[C@@H](CCC(=O)O)C(=O)O)C(=O)O)CC1 (stereo partly drawn) [Example 1-A, (3S,10S,14S)-1-[(1r,4S)-4-(aminomethyl)cyclohexyl]-3-[(naphthalen-2-yl)methyl]-1,4,12-trioxo-2,5,11,13-tetraazahexadecane-10,14,16-tricarboxylic acid]	90%	45%			
NC[C@H]1CC[C@H](C(=O)N[C@@H](Cc2ccc3ccccc3c2Br)C(=O)NCCCC[C@H](NC(=O)N[C@@H](CCC(=O)O)C(=O)O)C(=O)O)CC1 [Example 14-A, (3S,10S,14S)-1-[(1r,4S)-4-(aminomethyl)cyclohexyl]-3-[(1-bromonaphthalen-2-yl)methyl]-1,4,12-trioxo-2,5,11,13-tetraazahexadecane-10,14,16-tricarboxylic acid]	187%	129%			
O=C(O)CC[C@H](NC(=O)N[C@@H](CCCCNC(=O)[C@H](Cc1ccc2ccccc2c1)NC(=O)[C@H]1CC[C@H](CNC(=O)COCC(=O)NCCOCCOCCOCCOCCOCCOCCOCCOCCOCCOCCOCCNC(=O)COCC(=O)Nc2ccc(CC(CN(CCNC(=O)c3ccn(CCO)c(=O)c3O)CCNC(=O)c3ccn(CCO)c(=O)c3O)CN(CCNC(=O)c3ccn(CCO)c(=O)c3O)CCNC(=O)c3ccn(CCO)c(=O)c3O)cc2)CC1)C(=O)O)C(=O)O [Example 1-PEG]			80%	41%	
O=C(O)CC[C@H](NC(=O)N[C@@H](CCCCNC(=O)[C@H](Cc1ccc2ccccc2c1)NC(=O)[C@H]1CC[C@H](CNC(=O)CN2CCN(CC(=O)O)CCN(CC(=O)O)CCN(CC(=O)O)CC2)CC1)C(=O)O)C(=O)O [PSMA-617, reference compound]					below 5%

The next lines start with results.

remaining activity at 0.01 µM [1]	remaining activity at 0.1 µM [2]	SMILES	% remaining 3H-PSMA-617 @ 10 nM (mean) [1]	% remaining 3H-PSMA-617 @ 100 nM (mean) [2]	Non-specific binding: remaining binding of 3H-PSMA-617 in the presence of unlabeled PSMA-617 (unlabeled PSMA-617 at 5000 nM (500 fold excess))
84%	56%	NC[C@H]1CC[C@H](C(=O)N[C@@H](Cc2ccc3ccccc3n2)C(=O)NCCCC[C@H](NC(=O)N[C@@H](CCC(=O)O)C(=O)O)C(=O)O)CC1 [Example 17-A, N^6—{N-[(1r,4S)-4-(aminomethyl)cyclohexane-1-carbonyl]-3-(quinolin-2-yl)-L-alanyl}-N^2-{[(1S)-1,3-dicarboxypropyl]carbamoyl}-L-lysine]			
59%	26%	Nc1ccc(CC(=O)N[C@@H](Cc2ccc3ccccc3c2)C(=O)NCCCC[C@H](NC(=O)N[C@@H](CCC(=O)O)C(=O)O)C(=O)O)cc1 [Example 23-A, (4S,11S,15S)-1-(4-aminophenyl)-4-[(naphthalen-2-yl)methyl]-2,5,13-trioxo-3,6,12,14-tetraazaheptadecane-11,15,17-tricarboxylic acid]			
88%	34%	O=C(O)CC[C@H](NC(=O)N[C@@H](CCCCNC(=O)[C@@H](Cc1ccc2ccncc2c1)NC(=O)[C@H]1CC[C@H](CNC(=O)CN2CCN(CC(=O)O)CCN(CC(=O)O)CCN(CC(=O)O)CC2)CC1)C(=O)O)C(=O)O [Example 42-B, (3R,10S,14S)-3-[(isoquinolin-7-yl)methyl]-1,4,12-trioxo-1-[(1r,4S)-4-({2-[4,7,10-tris(carboxymethyl)-1,4,7,10-tetraazacyclododecan-1-yl]acetamido}methyl)cyclohexyl]-2,5,11,13-tetraazahexadecane-10,14,16-tricarboxylic acid]			
